Laboratory results published in article PMC10962448, “The preclinical and phase 1 development of the novel oral cathepsin C inhibitor BI 1291583” (ERJ Open Research, 2024).

Molecular target: T1, cathepsin C (CatC; dipeptidyl peptidase 1) (Homo sapiens, UniProt P53634)
T1 construct: gene CTSC
Assay: surface plasmon resonance with isolated human CatC (pH […]); enzymatic IC50 […]
Format: binding

T1 sequence (P53634 25-134): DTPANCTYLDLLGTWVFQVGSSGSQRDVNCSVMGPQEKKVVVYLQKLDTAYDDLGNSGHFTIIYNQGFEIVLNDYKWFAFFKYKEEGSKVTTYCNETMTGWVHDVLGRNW
T1 sequence (P53634 231-394): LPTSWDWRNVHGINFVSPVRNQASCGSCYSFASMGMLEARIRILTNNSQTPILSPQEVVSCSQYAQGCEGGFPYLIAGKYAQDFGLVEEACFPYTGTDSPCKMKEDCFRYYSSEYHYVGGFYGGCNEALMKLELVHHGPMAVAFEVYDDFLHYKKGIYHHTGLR
T1 sequence (P53634 395-463): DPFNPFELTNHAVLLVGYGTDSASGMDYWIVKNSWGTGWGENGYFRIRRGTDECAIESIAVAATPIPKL

BI 1291583 showed a Kd of 0.43 nM.
